The compounds below were run against T1, fatty acyl CoA: cholesterol acyl transferase (ACAT) (Rattus norvegicus, UniProt O70536) (assay: Inhibition of fatty acyl CoA:cholesterol acyl transferase (ACAT), rat adrenal enzyme). Conditions: rat adrenal ACAT; final concentration 5.2 μg/ml; read-out: % Inhibition.
T1 construct: The supernatant, containing the microsomal fraction, served as the source of the cholesterol-esterifying enzyme; from tissue; host or cells: rat adrenals, supernatant of 1,000 x g centrifugation containing the microsomal fraction
T1 sequence (O70536 1-545): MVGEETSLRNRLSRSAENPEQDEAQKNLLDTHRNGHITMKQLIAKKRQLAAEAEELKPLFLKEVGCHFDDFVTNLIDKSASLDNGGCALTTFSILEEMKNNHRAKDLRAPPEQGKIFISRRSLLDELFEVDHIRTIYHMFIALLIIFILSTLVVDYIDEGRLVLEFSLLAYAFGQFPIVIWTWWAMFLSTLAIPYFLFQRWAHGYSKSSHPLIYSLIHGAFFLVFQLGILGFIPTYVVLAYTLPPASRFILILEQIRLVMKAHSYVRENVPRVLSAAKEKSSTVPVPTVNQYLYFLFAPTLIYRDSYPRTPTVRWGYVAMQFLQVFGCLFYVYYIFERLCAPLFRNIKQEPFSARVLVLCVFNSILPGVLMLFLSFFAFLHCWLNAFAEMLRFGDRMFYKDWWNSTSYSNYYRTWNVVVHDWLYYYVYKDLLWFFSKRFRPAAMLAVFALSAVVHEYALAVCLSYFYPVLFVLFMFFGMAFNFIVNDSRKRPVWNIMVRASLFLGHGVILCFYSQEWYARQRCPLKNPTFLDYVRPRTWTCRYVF
Format: biochemical
Protocol: The compounds of the present invention were assayed for two types of biological activity related to their potential use as antiatherosclerotic agents. Compounds were tested in vitro for the ability to inhibit the enzyme fatty acyl CoA: cholesterol acyl transferase (ACAT) and in vivo for serum hypolipidemic activity as meausred by the ability to inhibit lipid absorption in rats.
The compounds were tested for their ability to inhibit ACAT according to the following procedure: rat adrenals were homogenized in 0.2M monobasic potassium phosphate buffer, pH 7.4, and centrifuged at 1,000 times gravity for 15 minutes at 5° C. The supernatant, containing the microsomal fraction, served as the source of the cholesterol-esterifying enzyme, fatty acyl CoA:cholesterol acyl transferase (ACAT). A mixture comprising 50 parts of adrenal supernatant, 10 parts of bovine serum albumin (50 mg/ml), 3 parts of test compound (final concentration 5.2 μg/ml), and 500 parts of buffer was preincubated at 37° C. for 10 minutes. After treatment with 20 parts of oleoyl CoA (^14 C-0.4 μCi), the mixture was incubated at 37° C. for 10 minutes. A control mixture, omitting the test compound, was prepared and treated in the same manner. The lipids from the incubation mixture was extracted into an organic solvent and separated by thin-layer chromatography. The cholesteryl ester fraction was counted in a scintillation counter. This procedure is a modification of that described by Hashimoto, et al., Life Scie., 12 (Part II), 1-12 (1973).
Compounds which produced statistically significant inhibition of the ACAT enzyme are considered to be active.
In addition to the above described test and the results given in terms of percent inhibition, various compounds of this invention were tested by the same procedure at several concentrations. The results of this test are given in Table II in terms of IC50 (μM), that concentration which produced 50% inhibition of the ACAT enzyme.

Question: `CCCCCOc1ccc(CN(Cc2ccc(CCCCC)cc2)C(=O)Nc2ccc(Cl)cc2C(F)(F)F)cc1` [1-(4-n-Pentylbenzyl)-1-(4-n-pentyloxybenzyl)-3-(2-trifluoromethyl-4-chlorophenyl)urea] was tested. Which inhibition at 5.2 µg/mL did it give?
Answer: 81%

Question: How did the inhibition at 5.2 µg/mL turn out when `CCCCCOc1ccc(CN(Cc2ccc(CCCCC)cc2)C(=O)Nc2cccc(C(F)(F)F)c2)cc1` [1-(4-n-Pentylbenzyl)-1-(4-n-pentyloxybenzyl)-3-(3-trifluoromethylphenyl)urea] was run?
Answer: 85%

Question: For `CCCCN(Cc1c(Cl)cccc1Cl)C(=O)Nc1ccc(C)cc1C` [1-( -n-Butyl)-1-(2,6-dichlorobenzyl)-3-(2,4-dimethylphenyl)urea], which inhibition at 5.2 µg/mL is on record?
Answer: 74.5%

Question: With `CCCCN(Cc1ccccc1Cl)C(=O)Nc1ccc(C)cc1C` [1-( -n-Butyl)-1-(2-chlorobenzyl)-3-(2,4-dimethylphenyl)urea] as the compound, how does the inhibition at 5.2 µg/mL read?
Answer: 95.5%

Question: With `CCCCN(Cc1ccccc1F)C(=O)Nc1ccc(C)cc1C` [1-( -n-Butyl)-1-(2-fluorobenzyl)-3-(2,4-dimethylphenyl)urea] as the compound, how does the inhibition at 5.2 µg/mL read?
Answer: 83.6%

Question: Which inhibition at 5.2 µg/mL does the source give for `CCCCc1ccc(CN(CCCC)C(=O)Nc2ccc(C)cc2C)cc1` [1-( -n-Butyl)-1-(4- -n-butylbenzyl)-3-(2,4-dimethylphenyl)urea] here?
Answer: 94.4%

Question: With `CCCCN(Cc1ccc(F)cc1)C(=O)Nc1ccc(C)cc1C` [1-( -n-Butyl)-1-(4-fluorobenzyl)-3-(2,4-dimethylphenyl)urea] as the compound, how does the inhibition at 5.2 µg/mL read?
Answer: 80.6%

Question: `CCCCOc1ccc(CN(Cc2ccccc2)C(=O)Nc2cccc(C(F)(F)F)c2)cc1` [1-(n-Benzyl)-1-(4-n-butoxybenzyl)-3-(3-trifluoromethylphenyl)urea] was tested. Which inhibition at 5.2 µg/mL did it give?
Answer: 87%

Question: Which inhibition at 5.2 µg/mL does the source give for `CCCCN(CC(C)(c1ccccc1)c1ccccc1)C(=O)Nc1ccc(C)cc1C` [1-(n-Butyl)-1-(2-methyl-2,2-diphenyl)ethyl-3-(2,4-dimethylphenyl)urea] here?
Answer: 97.4%

Question: For `CCCCN(CCc1ccccc1)C(=O)Nc1ccc(C)cc1C` [1-(n-Butyl)-1-(2-phenylethyl)-3-(2,4-dimethylphenyl)urea], which inhibition at 5.2 µg/mL is on record?
Answer: 87.9%

Question: How did the inhibition at 5.2 µg/mL turn out when `CCCCN(Cc1ccc2c(c1)OCO2)C(=O)Nc1ccc(C)cc1C` [1-(n-Butyl)-1-(3,4-methylenedioxybenzyl)-3-(2,4-dimethylphenyl)urea] was run?
Answer: 88.2%

Question: How did the inhibition at 5.2 µg/mL turn out when `CCCCN(CCCc1ccccc1)C(=O)Nc1ccc(C)cc1C` [1-(n-Butyl)-1-(3-phenylpropyl)-3-(2,4-dimethylphenyl)urea] was run?
Answer: 97.4%

Question: How did the inhibition at 5.2 µg/mL turn out when `CCCCN(Cc1ccc(Cl)cc1)C(=O)Nc1ccc(C)cc1C` [1-(n-Butyl)-1-(4-chlorobenzyl)-3-(2,4-dimethylphenyl)urea] was run?
Answer: 94.6%

Question: For `CCCCCCOc1ccc(CN(CCCC)C(=O)Nc2c(C)cc(C)cc2C)cc1` [1-(n-Butyl)-1-(4-hexyloxybenzyl)-3-(2,4,6-trimethylphenyl)urea], which inhibition at 5.2 µg/mL is on record?
Answer: 97.1%

Question: Which inhibition at 5.2 µg/mL does the source give for `CCCCN(Cc1ccc(OC)cc1)C(=O)Nc1ccc(C)cc1C` [1-(n-Butyl)-1-(4-methoxybenzyl)-3-(2,4-dimethylphenyl)urea] here?
Answer: 94.2%

Question: `CCCCN(Cc1ccc(C)cc1)C(=O)Nc1ccc(C)cc1C` [1-(n-Butyl)-1-(4-methylbenzyl)-3-(2,4-dimethylphenyl)urea] was tested. Which inhibition at 5.2 µg/mL did it give?
Answer: 96.7%

Question: Which inhibition at 5.2 µg/mL does the source give for `CCCCN(Cc1ccc(-c2ccccc2)cc1)C(=O)Nc1ccc(C)cc1C` [1-(n-Butyl)-1-(4-phenylbenzyl)-3-(2,4-dimethylphenyl)urea] here?
Answer: 97.1%

Question: How did the inhibition at 5.2 µg/mL turn out when `CCCCN(Cc1ccc(C(C)(C)C)cc1)C(=O)Nc1ccc(C)cc1C` [1-(n-Butyl)-1-(4-tert-butylbenzyl)-3-(2,4-dimethylphenyl)urea] was run?
Answer: 96.4%

Question: `CCCCN(Cc1ccc(C(F)(F)F)cc1)C(=O)Nc1ccc(C)cc1C` [1-(n-Butyl)-1-(4-trifluoromethylbenzyl)-3-(2,4-dimethylphenyl)urea] was tested. Which inhibition at 5.2 µg/mL did it give?
Answer: 93.3%

Question: With `CCCCN(Cc1ccccc1)C(=O)Nc1cc(Cl)c(NC(=O)CCl)c(Cl)c1` [1-(n-Butyl)-1-(benzyl)-3-[4-(chloroacetamido)-3,5-dichlorophenyl]urea] as the compound, how does the inhibition at 5.2 µg/mL read?
Answer: 72.9%

Question: With `CCCCN(CCc1cccc(Br)c1)C(=O)Nc1ccc(C)cc1C` [1-(n-Butyl)-1-[2-(3-bromophenyl)ethyl]-3-(2,4-dimethylphenyl)urea] as the compound, how does the inhibition at 5.2 µg/mL read?
Answer: 97%

Question: `CCCCN(CCc1cccc(OC)c1)C(=O)Nc1ccc(C)cc1C` [1-(n-Butyl)-1-[2-(3-methoxyphenyl)ethyl]-3-(2,4-dimethylphenyl)urea] was tested. Which inhibition at 5.2 µg/mL did it give?
Answer: 98.3%

Question: `CCCCN(CCc1ccc(Cl)cc1)C(=O)Nc1ccc(C)cc1C` [1-(n-Butyl)-1-[2-(4-chlorophenyl)ethyl]-3-(2,4-dimethylphenyl)urea] was tested. Which inhibition at 5.2 µg/mL did it give?
Answer: 93.3%

Question: How did the inhibition at 5.2 µg/mL turn out when `CCCCN(CCc1ccc(F)cc1)C(=O)Nc1ccc(C)cc1C` [1-(n-Butyl)-1-[2-(4-fluorophenyl)ethyl]-3-(2,4-dimethylphenyl)urea] was run?
Answer: 96.1%

Question: For `CCCCN(CCCc1ccc(OC)c(OC)c1)C(=O)Nc1ccc(C)cc1C` [1-(n-Butyl)-1-[3-(3,4-dimethoxyphenyl)propyl]-3-(2,4-dimethylphenyl)urea], which inhibition at 5.2 µg/mL is on record?
Answer: 36.4%

Question: With `CCCCCCc1ccc(CN(CCCC)C(=O)Nc2ccc(C)cc2C)cc1` [1-(n-Butyl)-1-[4-(n-hexyl)benzyl]-3-(2,4-dimethylphenyl)urea] as the compound, how does the inhibition at 5.2 µg/mL read?
Answer: 93.8%

Question: `CCCCN(Cc1ccccc1)C(=O)Nc1cc(Cl)ccc1O` [1-(n-Butyl)-1-benzyl-3-(2-hydroxy-5-chlorophenyl)urea] was tested. Which inhibition at 5.2 µg/mL did it give?
Answer: 85.6%

Question: Which inhibition at 5.2 µg/mL does the source give for `CCCCN(Cc1ccccc1)C(=O)Nc1ccccc1[N+](=O)[O-]` [1-(n-Butyl)-1-benzyl-3-(2-nitrophenyl)urea] here?
Answer: 37%

Question: Which inhibition at 5.2 µg/mL does the source give for `CCCCN(Cc1ccccc1)C(=O)Nc1cccc(Cl)c1O` [1-(n-Butyl)-1-benzyl-3-(3-chloro-2-hydroxyphenyl)urea] here?
Answer: 71%

Question: With `CCCCN(Cc1ccccc1)C(=O)Nc1cc(Cl)c(N)c(Cl)c1` [1-(n-Butyl)-1-benzyl-3-(4-amino-3,5-dichlorophenyl)urea] as the compound, how does the inhibition at 5.2 µg/mL read?
Answer: 61.1%

Question: Which inhibition at 5.2 µg/mL does the source give for `CCCCN(Cc1ccccc1)C(=O)Nc1cc(Cl)c(NC(=O)C(F)(F)F)c(Cl)c1` [1-(n-Butyl)-1-benzyl-3-(4-trifluoroacetylamino-3,5-dichlorophenyl)urea] here?
Answer: 87.8%

Question: How did the inhibition at 5.2 µg/mL turn out when `CCCCCCCCCCN(Cc1ccccc1)C(=O)Nc1ccc(C)cc1C` [1-(n-Decyl)-1-benzyl-3-(2,4-dimethylphenyl)urea] was run?
Answer: 96.1%

Question: `CCCCCCCN(C(=O)Nc1cc(C)c(C)cc1C)c1ccco1` [1-(n-Heptyl)-1-(2-furyl)-3-(2,4,5-trimethylphenyl)urea] was tested. Which inhibition at 5.2 µg/mL did it give?
Answer: 93.8%

Question: For `CCCCCCCN(C(=O)Nc1c(Cl)cc(Cl)cc1Cl)c1ccco1` [1-(n-Heptyl)-1-(2-furyl)-3-(2,4,6-trichlorophenyl)urea], which inhibition at 5.2 µg/mL is on record?
Answer: 96.1%

Question: `CCCCCCCN(CCc1ccccc1)C(=O)Nc1cc(Cl)c(Cl)cc1Cl` [1-(n-Heptyl)-1-(2-phenylethyl)-3-(2,4,5-trichlorophenyl)urea] was tested. Which inhibition at 5.2 µg/mL did it give?
Answer: 77.3%

Question: For `CCCCCCCN(CCc1ccccc1)C(=O)Nc1cccc(C(F)(F)F)c1` [1-(n-Heptyl)-1-(2-phenylethyl)-3-(3-trifluoromethylphenyl)urea], which inhibition at 5.2 µg/mL is on record?
Answer: 88.4%

Question: Which inhibition at 5.2 µg/mL does the source give for `CCCCCCCN(Cc1ccc(CCCC)cc1)C(=O)Nc1cc(Cl)c(Cl)cc1Cl` [1-(n-Heptyl)-1-(4-n-butylbenzyl)-3-(2,4,5-trichlorophenyl)urea] here?
Answer: 46.5%

Same assay, conditions: rat adrenal ACAT; several concentrations

Question: `Cc1cc(Cl)cc(C)c1NC(=O)N(CCCCCC(C)O)Cc1ccc(CC(C)(C)C)cc1` (centres unmarked) [1-(6-Hydroxyheptyl)-1-[4-(2,2-dimethylpropyl)benzyl]-3-(4-chloro-2,6-dimethylphenyl)urea] was tested. Which IC50 did it give?
Answer: 1130 nM
